These results are taken from patent US20070043327A1, “Drug delivery device comprising a mesh sleeve” (priority 2003, published 2007).

A short description of data set [1]: release of mefenamic acid from intravaginal devices into water. The conditions noted are these: 100 ml water, stirred gently, six devices. In kind it is physicochemical. The source says: The final intra-vaginal devices, namely coupons fixed directly to tampons or coupons fixed to tampons via the sleeve were then compared for their ability to release an active pharmaceutical, in this case mefenamic acid, when placed in an aqueous environment. This enabled functional ‘equivalence’ of the devices to be confirmed. Intravaginal devices constructed by the direct application of coupons to tampons were compared to intravaginal devices constructed using the mesh sleeve. Devices were placed in beakers containing 100 ml water and stirred gently for varying periods of time. The fluid phase was removed brought to a […] with sodium hydroxide and the concentration of mefenamic determined by spectrophotometry.

Data set [2] can be described thus: clinical study: circulating plasma concentrations of mefenamic acid after intravaginal devices. Type of data set: in vivo. The conditions noted are these: human volunteers, intravaginal tampon with directly attached coupons. On the procedure:
The purpose of the device described here is to administer mefenamic acid via the intravaginal route. In one clinical study, intravaginal devices, using the direct process of attachment of coupons to tampons were prepared to cGMP (Good Manufacturing Procedure); devices were prepared containing 20, 40 or 80 mg per tampon.
These were administered to human volunteers in a study conforming to Good Clinical Procedure and circulating plasma concentrations of mefenamic acid were determined after drawing blood samples.

The mark [3] stands for this setting: 20 mg mefenamic acid per tampon.
[4] abbreviates: 40 mg mefenamic acid per tampon.
Setting [5] is: 80 mg mefenamic acid per tampon.

In the case of `Cc1cccc(Nc2ccccc2C(=O)O)c1C` [mefenamic acid, 2-[2,3-Dimethylphenylamino] benzoid acid], the “mefenamic acid recovered in the aqueous phase (mean)” value is given as 73.7 mg in data set [1] (devices with coupons attached via the mesh sleeve, 80 mg per sleeve) and 72.8 mg in data set [1] (devices with coupons directly attached to tampons, 80 mg per tampon). Besides, the “Accumulated dose (0-7)” value in data set [2] (setting [3]) is 44.7; in data set [2] (setting [4]) it was 197; in data set [2] (setting [5]), 257. Also, the figures for the Max. plasma conc. in data set [2] (setting [3]), in data set [2] (setting [4]) and in data set [2] (setting [5]) were 4.23 ng/mL, 14.9 ng/mL and 19.5 ng/mL, respectively.
